In patent publication US20190375708A1 (VenatoRx Pharmaceuticals, Inc., priority 2018, published 2019):

Tests used:
[1] = In vitro cytotoxicity assay (MTT cell viability) in HepG2 cells; type: cell-based, human; settings: human
Method in brief: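 Read-out: MTT formazan absorbance at 492 nm, expressed as % of vehicle signal; CC50 by 4-parameter non-linear regression. Parental HepG2, 20,000 cells/well, treated 7 days with compound from 30 μM down to 1.0 nM.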

[2] = system: HBV replication in HepAD38 cells; test: Anti-HBV replication assay in HepAD38 cells (QPCR of extracellular HBV DNA); type: cell-based, HBV (genotype D, serotype ayw); settings: Hepatitis B virus, 168 h, 7 days incubation, extracellular HBV DNA by QPCR, read-out: Anti-HBV EC50
Method in brief: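 Read-out is QPCR of HBV DNA released into culture supernatant, converted to percent of vehicle control and fitted to give EC50. Cells were HepAD38 induced by tetracycline removal and dosed […] for 7 days.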

CNC(=O)[C@@H](NC(=O)C(=O)c1c(C)c(C(=O)Nc2ccc(F)c(C)c2)c(C)n1C)C1CC1 [Example 123, (S)-5-(2-((1-cyclopropyl-2-(methylamino)-2-oxoethyl)amino)-2-oxoacetyl)-N-(4-fluoro-3-methylphenyl)-1,2,4-trimethyl-1H-pyrrole-3-carboxamide]
CC50 at 7 days [1]: > 30 µM | EC50 [2]: 0.05 to 0.499 µM

Cc1cc(NC(=O)c2c(C)c(C(=O)C(=O)N[C@H](C(=O)O)C(C)(C)C)n(C)c2C)ccc1F [Example 30, (S)-2-(22-(4-((4-fluoro-3-methylphenyl)carbamoyl)-1,3,5-trimethyl-1H-pyrrol-2-yl)-2-oxoacetamido)-3,3-dimethylbutanoic acid]
CC50 at 7 days [1]: > 30 µM | EC50 [2]: > 1 µM

Cc1cc(NC(=O)c2c(C)c(C(=O)C(=O)NC3(C(F)(F)F)CCOC3)n(C)c2C)ccc1F (stereo not drawn) [Example 278, N-(4-fluoro-3-methylphenyl)-1,2,4-trimethyl-5-(2-oxo2-((3-(trifluoromethyl)tetrahydrofuran-3-yl)amino)acetyl)-1H-pyrrole-3-carboxamide]
CC50 at 7 days [1]: > 30 µM | EC50 [2]: < 0.05 µM

COCC(C)(C)NC(=O)C(=O)c1c(C)c(C(=O)Nc2ccc(F)c(C)c2)c(C)n1C [Example 169, N-(4-fluoro-3-methylphenyl)-5-(2-((1-methoxy-2-methylpropan-2-yl)amino)-2-oxoacetyl)-1,2,4-trimethyl-1H-pyrrole-3-carboxamide]
CC50 at 7 days [1]: > 30 µM | EC50 [2]: < 0.05 µM

Cc1cc(NC(=O)c2c(C)c(C(=O)C(=O)N[C@H](CO)[C@@H](C)O)n(CCF)c2C)ccc1F [Example 177, 5-(2-(((2R,3R)-1,3-dihydroxybutan-2-yl)amino)-2-oxoacetyl)-N-(4-fluoro-3-methylphenyl)-1-(2-fluoroethyl)-2,4-dimethyl-1H-pyrrole-3-carboxamide]
CC50 at 7 days [1]: 5 to 30 µM | EC50 [2]: 0.05 to 0.499 µM

Cc1noc([C@H](C)NC(=O)C(=O)c2c(Cl)c(C(=O)Nc3ccc(F)c(F)c3)c3n2CCC3)n1 [Example 568, (S)-6-chloro-N-(3,4-difluorophenyl)-5-(2-((1-(3-methyl-1,2,4-oxadiazol-5-yl)ethyl)amino)-2-oxoacetyl)-2,3-dihydro-1H-pyrrolizine-7-carboxamide]
CC50 at 7 days [1]: 5 to 30 µM | EC50 [2]: < 0.05 µM

Cc1cc(NC(=O)c2cc(C(=O)C(=O)N[C@H](C)C(F)(F)F)n3c2CCCC3)ccc1F [Example 408, (R)-N-(4-fluoro-3-methylphenyl)-3-(2-oxo-2-((1,1,1-trifluoropropan-2-yl)amino)acetyl)-5,6,7,8-tetrahydroindolizine-1-carboxamide]
CC50 at 7 days [1]: > 30 µM | EC50 [2]: 0.05 to 0.499 µM

Cc1cnc(NC(=O)c2c(C)c(C(=O)C(=O)NC3(CO)CCC3)n3c2CCCC3)s1 [Example 750]
CC50 at 7 days [1]: > 30 µM | EC50 [2]: 0.05 to 0.499 µM

Cc1c(C(=O)Nc2ccc(F)nc2)c(C)n(C)c1C(=O)C(=O)NC1(C(F)(F)F)CCOCC1 [Example 110, N-(6-fluoropyridin-3-yl)-1,2,4-trimethyl-5-(2-oxo-2-((4-(trifluoromethyl)tetrahydro-2H-pyran-4-yl)amino)acetyl)-1H-pyrrole-3-carboxamide]
CC50 at 7 days [1]: > 30 µM | EC50 [2]: < 0.05 µM

Cc1cc(NC(=O)c2c(C)c(C(=O)C(=O)N[C@@]3(C)CC[C@H](O)C3)n(C)c2C)ccc1F [Example 723, N-(4-fluoro-3-methylphenyl)-5-(2-(((1 S,3S)-3-hydroxy-1-methylcyclopentyl)amino)-2-oxoacetyl)-1,2,4-trimethyl-1H-pyrrole-3-carboxamide]
CC50 at 7 days [1]: > 30 µM | EC50 [2]: < 0.05 µM

Cc1cc(NC(=O)c2cc(C(=O)C(=O)NC(C)(C)C(N)=O)n3c2CCCC3)ccc1F [Example 406]
CC50 at 7 days [1]: > 30 µM | EC50 [2]: 0.5 to 1 µM

CNC(=O)[C@H](NC(=O)C(=O)c1c(C)c(C(=O)Nc2ccc(F)c(C)c2)c(C)n1C)C(C)(C)C [Example 60, (R)-5-(2-((3,3-dimethyl-1-(methylamino)-1-oxobutan-2-yl)amino)-2-oxoacetyl)-N-(4-fluoro-3-methylphenyl)-1,2,4-trimethyl-1H-pyrrole-3-carboxamide]
CC50 at 7 days [1]: > 30 µM | EC50 [2]: < 0.05 µM

C#CCO[C@H]1CC[C@@H](NC(=O)C(=O)c2c(C)c(C(=O)Nc3ccc(F)c(C)c3)c(C)n2C)CC1 [Example 629, N-(4-fluoro-3-methylphenyl)-1,2,4-trimethyl-5-(2-oxo-2-(((1s,4s)-4-(prop-2-yn-1-yloxy)cyclohexxyl)amino)acetyl)-1H-pyrrole-3-carboxamide]
CC50 at 7 days [1]: > 30 µM | EC50 [2]: < 0.05 µM

Cc1cc(NC(=O)c2c(C)c(C(=O)C(=O)N[C@H]3CC[C@@H](O)CC3)n(CCF)c2C)ccc1F [Example 210, N-(4-fluoro-3-methylphenyl)-1-(2-fluoroethyl)-5-(2-(((1s,4s)-4-hydroxycyclohexyl)amino)-2-oxoacetyl)-2,4-dimethyl-1H-pyrrole-3-carboxamide]
CC50 at 7 days [1]: > 30 µM | EC50 [2]: < 0.05 µM

Cc1cc(NC(=O)c2c(C)c(C(=O)C(=O)N[C@@H](C(N)=O)[C@@H](C)O)n(C)c2C)ccc1F [Example 61, 5-(2-(((2R,3R)-1-amino-3-hydroxy-1-oxobutan-2-yl)amino)-2-oxoacetyl)-N-(4-fluoro-3-methylphenyl)-1,2,4-trimethyl-1H-pyrrole-3-carboxamide]
CC50 at 7 days [1]: > 30 µM | EC50 [2]: 0.05 to 0.499 µM

Cc1cc(NC(=O)c2c(C)c(C(=O)C(=O)NC3(c4noc(C(F)F)n4)CCC3)n(C)c2C)cnc1F [Example 159, 5-(2-((1-(5-(difluoromethyl)-1,2,4-oxadiazol-3-yl)cyclobutyl)amino)-2-oxoacetyl)-N-(6-fluoro-5-methylpyridin-3-yl)-1,2,4-trimethyl-1H-pyrrole-3-carboxamide]
CC50 at 7 days [1]: > 30 µM | EC50 [2]: < 0.05 µM

Cc1c(C(=O)Nc2ccc(F)c(F)c2)c2n(c1C(=O)C(=O)N[C@H]1COC[C@@H]1O)CCCC2 [Example 457, N-(3,4-difluorophenyl)-3-(2-(((3S,4R)-4-hydroxytetrahydrofuran-3-yl)amino)-2-oxoacetyl)-2-methyl-5,6,7,8-tettrahydroindolizine-1-carboxamide]
CC50 at 7 days [1]: > 30 µM | EC50 [2]: 0.05 to 0.499 µM

Cc1c(C(=O)Nc2ccnc(F)c2)c(C)n(C)c1C(=O)C(=O)NC(C)(C)C(F)(F)F [Example 172, N-(2-fluoropyridin-4-yl)-1,2,4-trimethyl-5-(2-oxo-2-((1,1,1-trifluoro-2-methylpropan-2-yl)amino)acetyl)-1H-pyrrole-3-carboxamide]
CC50 at 7 days [1]: > 30 µM | EC50 [2]: < 0.05 µM

Cc1cc(NC(=O)c2c(C)c(C(=O)C(=O)N[C@H]3CCN(S(C)(=O)=O)C3)n(C)c2C)ccc1F [Example 667, (S)-N-(4-fluoro-3-methylphenyl)-1,2,4-trimethyl-5-(2-((1-(methylsulfonyl)pyrrolidin-3-yl)amino)-2-oxoacetyl)-1H-pyrrole-3-carboxamide]
CC50 at 7 days [1]: 0.5 to 4.99 µM | EC50 [2]: < 0.05 µM

Cc1cc(NC(=O)c2c(C)c(C(=O)C(=O)NC(C)(C)CN3CCOCC3)n(C)c2C)cnc1F [Example 351, N-(6-fluoro-5-methylpyridin-3-yl)-1,2,4-trimethyl-5-(2-((2-methyl-1-morpholiinopropan-2-yl)amino)-2-oxoacetyl)-1H-pyrrole-3-carboxamide]
CC50 at 7 days [1]: > 30 µM | EC50 [2]: 0.05 to 0.499 µM

Cc1noc([C@@H](C)NC(=O)C(=O)c2c(Cl)c(C(=O)Nc3ccc(F)c(C)c3)c3n2CCCC3)n1 [Example 495, (R)-2-chloro-N-(4-fluoro-3-methylphenyl)-3-(2-((1-(3-methyl-1,2,4-oxadiazol-5-yl)ethyl)amino)-2-oxoacetyl)-5,6,7,8-tetrahydroindoliizine-1-carboxamide]
CC50 at 7 days [1]: 5 to 30 µM | EC50 [2]: < 0.05 µM

Cc1csc(NC(=O)C(=O)c2c(C)c(C(=O)Nc3cc(F)c(F)c(F)c3)c(C)n2C)n1 [Example 323, 1,2,4-trimethyl-5-(2-((4-methylthiazol-2-yl)amino)-2-oxoacetyl)-N-(3,4,5-trifluorophenyl)-1H-pyrrole-3-carboxamide]
CC50 at 7 days [1]: 5 to 30 µM | EC50 [2]: < 0.05 µM

Cc1c(C(=O)Nc2ccnc(F)c2)c(C)n(C)c1C(=O)C(=O)NC(C)(C)C [Example 89, 5-(2-(tert-butylamino)-2-oxoacetyl)-N-(2-fluoropyridin-4-yl)-1,2,4-trimethyl-1H-pyrrole-3-carboxamide]
CC50 at 7 days [1]: > 30 µM | EC50 [2]: < 0.05 µM

O=C(NC1(CO)CC1)C(=O)c1c(Cl)c(C(=O)Nc2ccc(F)c(Cl)c2)c2n1CCCC2 [Example 501, 2-chloro-N-(3-chloro-4-fluorophenyl)-3-(2-((1-(hydroxymethyl)cyclopropyl)amino)-2-oxoacetyl)-5,6,7,8-tetrahydroindolizine--1 carboxamide]
CC50 at 7 days [1]: 5 to 30 µM | EC50 [2]: 0.05 to 0.499 µM

Cc1cc(NC(=O)c2c(C)c(C(=O)C(=O)NC3(CO)CCCC3)n(C)c2C)ccc1F [Example 359, N-(4-fluoro-3-methylphenyl)-5-(2-((1-(hydroxymethyl)cyclopentyl)amino)-2-oxoacetyl)-1,2,4-trimethyl-1H-pyrrole-3-carboxamide]
CC50 at 7 days [1]: > 30 µM | EC50 [2]: < 0.05 µM

Cc1noc(C2(NC(=O)C(=O)c3c(C)c(C(=O)Nc4cnc(F)c(C)c4)c(C)n3C)CC2)n1 [Example 160, N-(6-fluoro-5-methylpyridin-3-yl)-1,2,4-trimethyl-5-(2-((1-(3-methyl-1,2,4-oxadiazol-5-yl)cyclopropyl)amino)-2-oxoacetyl)-1H-pyrrole-3-carboxamide]
CC50 at 7 days [1]: > 30 µM | EC50 [2]: 0.05 to 0.499 µM

Cc1c(C(=O)Nc2cc(F)c(F)c(F)c2)c(C)n(C)c1C(=O)C(=O)Nc1ccccn1 [Example 318, 1,2,4-trimethyl-5-(2-oxo-2-(pyridin-2-ylamino)acetyl)-N-(3,4,5-trifluorophenyl)-1H-pyrrole-3-carboxamide]
CC50 at 7 days [1]: > 30 µM | EC50 [2]: 0.05 to 0.499 µM
